Consider 2 molecules from US12370235B2, “Synthetic, non-natural antimicrobial peptides inspired by Staphylococcus auricularis delta toxin” (University of Saskatchewan, priority 2021, dated 2025).

Values after ≈ are worked out from the molar mass of the structure shown. Ends that are not written are not given here. Peptide text beside a SMILES is read from it. * marks the point of attachment. For = O=C*

For data set [1], the system named is Candida duobushaemulonii AR 392. Nature of the data set: MIC, YPD broth, CDC and FDA AR Candida isolate panel. The format is cell-based. The settings on record: Table 9 top part: titrations from 1.56 to 100 μg/mL. A digest of the protocol:
(§1)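 Using peptides at 95% purity, yeast suspensions adjusted to an optical density of […] received two-fold diluted peptide, were held static overnight at 37° C, and were compared against sterile-water controls.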

In another data set the test system is Kodamae ohmeri AR 396. The data set is described as above. The format is cell-based. The settings on record: Table 9 top part: titrations from 1.56 to 100 μg/mL. A digest of the protocol:
as §1

A further data set has as its system C. albicans MYA-2876. Briefly: MIC, YPD broth. The format is cell-based, Candida albicans. The settings on record: Table 8. Put shortly:
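Minimum inhibitory concentrations against Candida albicans were determined in YPD broth (10 g/L yeast extract, 20 g/L peptone, 20 g/L dextrose) using peptides of 95% purity. A 180 μl volume of diluted yeast was combined with 20 μl of peptide in a 2-fold dilution series in 96-well plates, with sterile water as control, then incubated standing overnight at 37° C.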

The next data set deals with HeLa cells. It counts as cell-based. The settings on record: 24 h, alamarBlue. The protocol:
Peptide cytotoxicity. In vitro cytotoxicity was measured using the 3D EpiDerm skin tissues and HeLa Cells using a fluorescent reporter of cell viability, alamarBlue (ThermoFisher Scientific). 3D EpiDerm skin tissues (MatTek EPI-200-AFAB) were transferred to a 12 well plate containing 600 μL of AFAB-assay medium supplemented with 10% v/v alamarBlue. […] HeLa cells were seeded in a 96-well plate (2×10^4 cells/per well) and incubated overnight at 37° C. and 5% CO2 in a humidified incubator to prepare wells at ˜50% confluency of adherent cells. After the incubation, spent DMEM was removed and cells were washed with PBS. alamarBlue-containing medium was prepared by mixing Phenol Red-free DMEM with alamarBlue solution at a 9:1 ratio and a 180 μl volume was added to each well. Cells were treated with peptides varying from 3.25 to 200 μg/mL and then incubated for 24 h. The fluorescence intensities of treated cultures were normalized to values measured for an untreated control group. After the 24 h incubation period, alamarBlue fluorescence was measured at 590 nm upon excitation at 560 nm using Varioskan Lux plate reader (Thermo Scientific) plate reader.
A general note: Resazurin is reduced to fluorescent resorufin, in cell work by metabolically active cells.

In a further data set the target is SspA protease (Staphylococcus aureus, UniProt P0C1U8). Nature of the data set: SspA protease treatment, LC/MS analysis. The format is in vitro ADME. The settings on record: in vitro, 37° C., ˜5 hours. The protocol:
SspA protease treatment. SspA protease was resuspended at 2 mg/mL in 100 mM HEPES, pH 7.8. Proteolysis was achieved by incubation of 50 μg PSMs at 37° C. for ˜5 hours with 0.2 mg/mL SspA. The antimicrobial activity of the proteolytic products were assayed by spotting a 5 μL (˜45 μg) from each treated peptide on each test microorganism as described above.
HPLC/MS analysis. High performance liquid chromatography coupled to mass spectrometry (HPLC-MS) was conducted to assess the proteolytic cleavage of synthetic PSMs by the SspA protease, as described above. Both treated samples and untreated controls were incubated at 37° C. for 5 hours, and then frozen until HPLC/MS analysis. An Agilent Infinity II 1260 HPLC outfitted with a Phenomenex Lune C5 column (4.6×150 mm, 5 μm) was used to separate the peptide fragments using a binary solvent system consisting of solvent A (water, 0.05% formic acid) and solvent B (acetonitrile, 0.05% formic acid) operating at 0.7 mL/min. A 5 μl volume (˜4.5 μg) of each sample was injected at 10% solvent B, followed by a two-step gradient elution from 10 to 50% solvent B in 30 minutes, then 50 to 100% B in 10 minutes. The HPLC was coupled to an Advion CMS(L) single quadrupole mass detector through an electrospray ionization source. A line splitter from the HPLC to ESI source was used to deliver sample to the mass detector at 0.3 mL/min. An Advion expression-L CMS detector was used at low temperature and fragmentation settings: capillary temperature: 135° C., capillary voltage 120 V, source voltage offset 20 V, source gas temperature 135° C. and ESI voltage 3500 V. The range of ions detected was between 100 and 2,000 m/z.

The nature of data set [2]: Circular dichroism spectroscopy. The format is physicochemical. The settings on record: CD, 50% (v/v) TFE. A digest of the protocol: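 Secondary structure of peptides dissolved in water at 0.3–0.5 mg/mL was assessed by CD. Spectra were recorded from 180 to 260 nm at room temperature in a 0.1 cm quartz cuvette; water and 50% (v/v) TFE conditions were compared.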
For orientation: CD spectra are sensitive to the conformation of chiral molecules.

Data set [3] concerns Mannheimia haemolytica ATCC 33393. Nature of the data set: MIC, broth dilution. It counts as cell-based. The settings on record: Table 11; highest concentration 25 μg/mL. A digest of the protocol: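 Peptides (95% purity) in 2-fold dilution series were mixed with M. haemolytica diluted to OD 6×10^−4 in cation-adjusted Mueller Hinton broth and incubated standing overnight at 37 °C. MIC was the lowest concentration with no visible growth.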
Background: Broth dilution looks for growth in wells or tubes with falling amounts of substance.

The test system of data set [4] is Candida lusitaniae AR 398. Briefly: MIC, YPD broth, CDC and FDA AR Candida isolate panel. To be noted: Table 9 top part: titrations from 1.56 to 100 μg/mL. The format is cell-based. Put shortly: as §1
Data set [5] has as its system Saccharomyces cerevisiae AR 400. The data set is described as above. The format is cell-based. The settings on record: Table 9 top part: titrations from 1.56 to 100 μg/mL. A digest of the protocol:
as §1

For data set [6], the system named is Saccharomyces cerevisiae AR 399. The data set is described as above. It counts as cell-based. To be noted: Table 9 top part: titrations from 1.56 to 100 μg/mL. A digest of the protocol: as §1
Another data set deals with Candida krusei AR 397. The data set is described as above. It counts as cell-based. To be noted: Table 9 top part: titrations from 1.56 to 100 μg/mL. Put shortly: as §1
The next data set concerns M. luteus ATCC 4698. Briefly: MIC, broth dilution. The settings on record: Table 4; liquid broth. The format is cell-based, Micrococcus luteus. Put shortly:
(§2)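 Peptides of 95% purity tested as 2-fold dilution series against bacteria diluted to OD 6×10^−4 in cation-adjusted Mueller Hinton broth. Standing cultures incubated overnight at 37° C; MIC is the lowest concentration with no visible growth.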

The subject of data set [7] is S. aureus ATCC BAA-2313 (MRSA SCCmec type XI). Briefly: MIC, broth dilution. To be noted: Table 5; STIP3 variants, highest concentration 100 μg/mL. It counts as cell-based, Staphylococcus aureus. Put shortly:
as §2

Data set [8] concerns S. aureus ATCC BAA-42 (MRSA SCCmec type VI). Nature of the data set: MIC, broth dilution. It counts as cell-based, Staphylococcus aureus. The settings on record: Table 5; STIP3 variants, highest concentration 100 μg/mL. Put shortly: as §2
The test system of data set [9] is S. aureus ATCC BAA-2094 (MRSA SCCmec type V). Nature of the data set: MIC, broth dilution. It counts as cell-based, Staphylococcus aureus. To be noted: Table 5; STIP3 variants, highest concentration 100 μg/mL. Put shortly: as §2
Data set [10] deals with S. aureus ATCC BAA-44 (MRSA SCCmec type I). Nature of the data set: MIC, broth dilution. It counts as cell-based, Staphylococcus aureus. The settings on record: Table 5; STIP3 variants, highest concentration 100 μg/mL. A digest of the protocol:
as §2

In data set [11] the test system is S. aureus ATCC BAA-41 (MRSA SCCmec type II). Nature of the data set: MIC, broth dilution. The settings on record: Table 5; STIP3 variants, highest concentration 100 μg/mL. It counts as cell-based, Staphylococcus aureus. Put shortly:
as §2

The test system of the next data set is S. aureus ATCC 29213. Nature of the data set: MIC, broth dilution. The format is cell-based, Staphylococcus aureus. A digest of the protocol:
as §2

The subject of data set [12] is S. aureus ATCC 33592 (MRSA SCCmec type III). Briefly: MIC, broth dilution. It counts as cell-based, Staphylococcus aureus. The settings on record: Table 5; STIP3 variants, highest concentration 100 μg/mL. Put shortly:
as §2

Chain of SspA protease (P0C1U8 69-336): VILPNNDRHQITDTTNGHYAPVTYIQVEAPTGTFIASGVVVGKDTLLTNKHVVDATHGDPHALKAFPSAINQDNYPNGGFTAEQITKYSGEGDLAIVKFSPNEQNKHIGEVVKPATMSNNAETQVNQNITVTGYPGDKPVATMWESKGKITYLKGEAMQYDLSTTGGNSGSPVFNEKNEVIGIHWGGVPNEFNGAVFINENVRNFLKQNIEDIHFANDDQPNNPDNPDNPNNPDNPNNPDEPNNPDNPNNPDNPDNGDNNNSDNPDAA

Consider `CC[C@H](C)[C@H](NC(=O)[C@H](Cc1c[nH]c2ccccc12)NC(=O)[C@H](CCCCN)NC(=O)[C@@H](NC(=O)[C@H](CC(C)C)NC(=O)CNC(=O)CNC(=O)[C@@H](NC(=O)[C@@H](NC(=O)[C@H](CCC(=O)O)NC(=O)[C@@H](NC(=O)[C@@H](NC(=O)[C@H](CC(=O)O)NC(=O)[C@H](CCCCN)NC(=O)[C@@H](NC(=O)[C@H](CCSC)NC=O)[C@@H](C)O)[C@@H](C)CC)C(C)C)[C@@H](C)O)C(C)C)C(C)C)C(=O)N[C@@H](CC(C)C)C(=O)N[C@@H](CC(=O)O)C(=O)N[C@H](C(=O)N[C@H](C(=O)N[C@@H](CCCCN)C(=O)N[C@@H](CCCCN)C(=O)N[C@@H](Cc1ccccc1)C(=O)N[C@@H](C)C(=O)O)C(C)C)[C@@H](C)O` [δ-toxin, reference compound] (For-MTKDIVETVGGLVKWILDTVKKFA-OH), for which the “MIC (μg/mL) Candida duobushaemulonii AR 392” value in data set [1] is reported as “> (MIC values reported at the top of the table (above the double line) are based on titrations from 1.56 to 100 μg/mL)”. In addition, the “MIC (μg/mL) Kodamae ohmeri AR 396” value in the data set on Kodamae ohmeri AR 396 was “> (MIC values reported at the top of the table (above the double line) are based on titrations from 1.56 to 100 μg/mL)”. Further, the “MIC C. albicans MYA-2876” value with C. albicans MYA-2876 is recorded as “> (> symbol indicates that no inhibition was observed at the highest concentration of peptide tested: 100 μg/mL)”. For the same molecule, in the data set on HeLa cells, the “IC50, HeLa cell survival” value came to 230 ± 30 µg/mL (≈ 84.6 µM). Moreover, the “susceptibility to SspA cleavage” value at SspA protease is “formylation protected against proteolysis”. Also, the “α helicity (%)” value in data set [2] amounted to 88%. For the same molecule, the “MIC (μg/mL) M. haemolytica” value in data set [3] is “> (> symbol indicates that no inhibition was observed at the highest concentration of peptide tested: 25 μg/mL)”.
As for “TVGGLVKWILDTVKKFA [STIP3-1, TVGGLVKWILDTVKKFA]”, in [4], the “MIC (μg/mL) Candida lusitaniae AR 398” value was 100 µg/mL. Besides, the “MIC (μg/mL) Saccharomyces cerevisiae AR 400” value in [5] stood at 12.5 µg/mL. The “MIC (μg/mL) Saccharomyces cerevisiae AR 399” value in data set [6] was 50 µg/mL. In addition, the “MIC (μg/mL) Candida krusei AR 397” value against Candida krusei AR 397 was 25 µg/mL. Moreover, in the data set on C. albicans MYA-2876, the “MIC C. albicans MYA-2876” value was 25 µg/mL. Moreover, the “IC50, HeLa cell survival” value in the data set with HeLa cells came out at 200 ± 30 µg/mL. Moreover, the “MIC (μg/mL) M. luteus” value against M. luteus ATCC 4698 was 12.5 µg/mL. Besides, the “susceptibility to SspA cleavage” value on SspA protease was “cleave the bioactive peptide into an inactive mixture”. Moreover, the “MIC S. aureus ATCC BAA 2313 (XI)” value in data set [7] came out at 100 µg/mL. The “MIC S. aureus ATCC BAA 42 (VI)” value in data set [8] came to 100 µg/mL. Besides, in data set [9], the “MIC S. aureus ATCC BAA 2094 (V)” value came out at 100 µg/mL. Also, the “MIC S. aureus ATCC BAA 44 (I)” value in data set [10] worked out at 100 µg/mL. Moreover, the “MIC S. aureus ATCC BAA 41 (II)” value in data set [11] amounted to 100 µg/mL. Moreover, the “MIC (μg/mL) S. aureus” value against S. aureus ATCC 29213 (Table 4, liquid broth) was determined as 100 µg/mL. The “MIC S. aureus ATCC 29213” value in the data set on S. aureus ATCC 29213 (Table 5, STIP3 variants, highest concentration 100 μg/mL) was determined as 100 µg/mL. Moreover, in data set [12], the “MIC S. aureus ATCC 33592 (III)” value is 100 µg/mL.
